The values that follow are results of earlier work, collected in US11375717B2, “Combinations of acaricides and insect growth regulators for control of fleas without emesis in animals” (Piedmont Animal Health Inc., priority 2017, dated 2022).

For this series the following is noted: 30 mg/kg in cats and 10 mg/kg in dogs.

With `O=C(NC(=O)c1c(F)cccc1F)Nc1cc(Cl)c(OC(F)(F)C(F)C(F)(F)F)cc1Cl` (stereo not shown) [Lufenuron], the Emesis result was “common side effect”.
